The values that follow come from patent publication US20110038931A1, “COMPOSITE PREPARATION” (HANALL BIOPHARMA CO., LTD., priority 2008, published 2011).

Structures are written as SMILES.

In assay [1] the test system is ADP-induced platelet aggregation. Nature of the assay: Measurement of ADP-induced platelet aggregation in SD rats (PRP, aggregometer). Type of assay: in vivo, Rats (male). The note with it: single drug 10 mg/kg, light. As to the method: (§1) Animal tests supporting the effects of the present invention were carried out as described in Table 8 below.
The test system of assay [2] is SD rats. Nature of the assay: Bleeding time measurement in SD rats. Type of assay: in vivo, Rats (male). The note with it: 10 mg/kg p.o. once, light, 2 hours after administration. As for the experimental part: as §1

In the case of `CC(=O)Oc1ccccc1C(=O)O` [Aspirin, acetylsalicylic acid], the Platelet aggregation in assay [1] is listed as 83.5 ± 16.7%. Further, in assay [2], the Bleeding time amounted to 930 ± 296 s.
In turn, `COC(=O)[C@H](c1ccccc1Cl)N1CCc2sccc2C1` [Clopidogrel, methyl (+)-(S)-α-(o-chlorophenyl)-6,7-dihydrothieno[3,2-c]pyridine-5(4H)-acetate] displayed a Platelet aggregation in assay [1] of 77.1 ± 20.9%. The compound further displayed a Bleeding time in assay [2] of 1177 ± 729 s.
